This experiment deals with Glutathione S-transferase class-mu 26 kDa isozyme (Schistosoma japonicum, UniProt P08515). Kind of experiment: GST–glutathione bead interaction interference profiling – biochemical, multiplex beads, flow cytometry, profiling panel (AID 1769). For orientation: In flow cytometry, cells or beads pass a laser one at a time.
Glutathione S-transferase class-mu 26 kDa isozyme, sequence (P08515 2-218 limits assumed): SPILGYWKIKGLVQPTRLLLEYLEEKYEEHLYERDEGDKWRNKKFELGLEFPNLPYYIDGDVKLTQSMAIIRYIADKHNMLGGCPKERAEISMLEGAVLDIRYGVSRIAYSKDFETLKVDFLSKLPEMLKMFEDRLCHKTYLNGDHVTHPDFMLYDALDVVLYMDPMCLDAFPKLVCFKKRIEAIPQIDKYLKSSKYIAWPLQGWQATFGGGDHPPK
As a reminder, the EC50 is the concentration giving half of the maximal effect. A higher EC50 goes with a less potent agent. Compound `CC(N=Nc1ccc(S(N)(=O)=O)cc1[N+](=O)[O-])c1ccc2c(c1)OCO2` (stereo not drawn) displayed a concentration giving a half-maximal response (EC50) of 1.4 µM.
Compound `Cc1nc(N=NCc2ccc(O)cc2)c2cnn(-c3ccccc3)c2n1` [4-[[(6-methyl-1-phenyl-4-pyrazolo[3,4-d]pyrimidinyl)hydrazo]methylidene]-1-cyclohexa-2,5-dienone] showed a half-maximal effective concentration (EC50) of 3.58 µM.
The same measure for `CN1C(=O)/C(=C2/C(=O)Nc3ccccc32)NC1=S` [SMR000198608]: 13.4 µM; for `COC(=O)c1cc(NC(=O)c2cccc(Cl)c2)c(=O)oc1CC=Nc1cc(C)cc(C)c1` [5-[(3-chlorobenzoyl)amino]-2-[(E)-2-(3,5-dimethylanilino)vinyl]-6-keto-pyran-3-carboxylic acid methyl ester]: 0.567 µM.
`NC(=S)NNC1=c2cc(F)c(F)cc2=NC1=O` [MLS000589334] registered a 50% effective concentration (EC50) of 15.6 µM.
Regarding `CCOC1=CC(=Cc2sc(=O)[nH]c2N)C=CC1=O`, the EC50 amounted to 2.47 µM.
The same measure for `CCNC(=S)NN=C1C(=O)Nc2ccc([N+](=O)[O-])cc21` [MLS000773526]: 1.93 µM; for `COc1cc(CN=Nc2nc(C)nc3c2cnn3-c2ccccc2)ccc1O` [(4E)-2-methoxy-4-[[(6-methyl-1-phenyl-4-pyrazolo[3,4-d]pyrimidinyl)hydrazo]methylidene]-1-cyclohexa-2,5-dienone]: 0.638 µM; for `Cc1cc(N=NCc2ccc(O)cc2O)nc(-n2nc(C)cc2C)n1` [(4E)-4-[[2-[2-(3,5-dimethylpyrazol-1-yl)-6-methyl-pyrimidin-4-yl]hydrazinyl]methylidene]-3-oxidanyl-cyclohexa-2,5-dien-1-one]: 0.831 µM.
In turn, `CCN(c1ccc(NC=C2C(=O)N(Cc3ccc(OC)cc3)C(=O)c3ccccc32)cc1)C(C)C` [(4E)-4-[[[4-[ethyl(propan-2-yl)amino]phenyl]amino]methylidene]-2-[(4-methoxyphenyl)methyl]isoquinoline-1,3-dione] had an EC50 of 0.249 µM.
With `O=c1[nH]c(=O)c2nnc(N=NCc3ccc(O)cc3)nc2[nH]1` [3-[2-[(4-oxidanylidenecyclohexa-2,5-dien-1-ylidene)methyl]hydrazinyl]-5H-pyrimido[4,5-e][1,2,4]triazine-6,8-dione], the concentration for a half-maximal effect (EC50) was found to be 3.79 µM. This EC50 is about 15-fold higher than that of the compound before.
`COc1ccc(-c2csc(-c3c(O)cn(C(C)C)c3N)n2)cc1OC` [5-amino-4-[4-(3,4-dimethoxyphenyl)-1,3-thiazol-2-yl]-1-propan-2-yl-2H-pyrrol-3-one] had a concentration for a half-maximal effect (EC50) of 87.3 µM.
Regarding `Cc1ccc(O)c(/N=C/C2=CC(Cc3ccccc3)C=C([N+](=O)[O-])C2=O)c1` (stereo not drawn) [(6E)-6-[[(5-methyl-2-oxidanyl-phenyl)amino]methylidene]-2-nitro-4-(phenylmethyl)cyclohexa-2,4-dien-1-one], the EC50 is 8.29 µM.
`NC(=S)NNC1=c2cc(Br)cc(Br)c2=NC1=O` [1-[[5,7-bis(bromanyl)-2-oxidanylidene-indol-3-yl]amino]thiourea] had a half-maximal effective concentration (EC50) of 69.1 µM.
`CCOc1ccc2c(c1)C(=NN=C(N)N)C(=O)N2C` [SMR000207554] yielded an EC50 of 25.6 µM.
For the compound `Oc1ccc2ccccc2c1CN=Nc1nnc(-c2ncc[nH]2)c2ccccc12` [SMR000151639], the EC50 turned out to be 1.95 µM.
The same measure for `O=c1[nH]c(N=NCc2ccc(O)cc2)nc2ccccc12` [MLS000571412]: 7.68 µM.
`COc1ccc(N=CCc2nc(SC)nnc2C)cc1` [(4-methoxyphenyl)-[(E)-2-[6-methyl-3-(methylthio)-1,2,4-triazin-5-yl]vinyl]amine]: a half-maximal effect (EC50) was put at 2.76 µM.
Turning to `CC(C)NC(=S)NN=C1C(=O)Nc2ccc([N+](=O)[O-])cc21` [1-[(5-nitro-2-oxidanylidene-indol-3-yl)amino]-3-propan-2-yl-thiourea], the concentration for a half-maximal effect (EC50) was determined as 1.43 µM. This EC50 lies about 1.9-fold lower than the previous one.
The value for `COc1cc(CN=Nc2ncnc3sc4c(c23)CCC4)ccc1O` [SMR000242188] was 14.5 µM.
As to `O=C(Cc1ccccc1)NCC(=O)N/N=C1\C(=O)N(Cc2ccc3c(c2)OCO3)c2ccccc21` [MLS000587449], the EC50 amounted to 12 µM.
For the compound `CCn1cc(C(=O)O)c(=O)c2cc(F)c(N=NCc3ccccc3)cc21` [1-Ethyl-6-fluoro-4-oxo-7-{N'-[1-phenyl-meth-(E)-ylidene]-hydrazino}-1,4-dihydro-quinoline-3-carboxylic acid], the EC50 was determined as 3.88 µM.
Compound `CCn1cc(C(=O)O)c(=O)c2cc(F)c(N=NCc3ccccc3[N+](=O)[O-])cc21` [SMR000171611] came in with an EC50 of 2.67 µM. This EC50 and that of the compound before are within 1.5-fold of each other.

The record behind these values is BindingDB's records for doi:10.7270/Q2ZC8184 (Nmmlsc, 2010).
